Experimental data: the NIST ThermoML archive (doi:10.1016/j.jct.2018.05.018)
Numbers after ± are expanded uncertainties.

Settings: 100 kPa, Liquid, Vibrating tube method

## CCO [ethanol]
293.15 K
  mass density: 789.48 ± 1.5 kg/m3
298.15 K
  mass density: 785.12 ± 1.5 kg/m3
303.15 K
  mass density: 780.86 ± 1.5 kg/m3
308.15 K
  mass density: 776.48 ± 1.5 kg/m3
313.15 K
  mass density: 772.17 ± 1.5 kg/m3
318.15 K
  mass density: 767.6 ± 1.5 kg/m3
323.15 K
  mass density: 763.22 ± 1.5 kg/m3

## CO [methanol]
293.15 K
  mass density: 791.41 ± 1.5 kg/m3
298.15 K
  mass density: 786.65 ± 1.5 kg/m3
303.15 K
  mass density: 781.85 ± 1.5 kg/m3
308.15 K
  mass density: 776.95 ± 1.5 kg/m3
313.15 K
  mass density: 771.97 ± 1.5 kg/m3

## CCCO [propan-1-ol]
293.15 K
  mass density: 803.52 ± 1.5 kg/m3
298.15 K
  mass density: 799.52 ± 1.5 kg/m3
303.15 K
  mass density: 795.5 ± 1.5 kg/m3
308.15 K
  mass density: 791.43 ± 1.5 kg/m3
313.15 K
  mass density: 787.31 ± 1.5 kg/m3
318.15 K
  mass density: 783.11 ± 1.5 kg/m3
323.15 K
  mass density: 778.79 ± 1.5 kg/m3
